The values below come from patent US11414454B2, “Compositions, methods, and systems for affinity-based protein identification and purification” (Auctus Biologies, Inc., priority 2017, dated 2022).

No end group written: not given here.

Series [1] addresses RPtag (large). The experiment in a line: Fluorescence anisotropy Kd of rhodamine labeled RPtag (small) peptides for RPtag (large). It counts as binding, Thermoanaerobacter tengcongensis. As to the method:
(§1) 50 nM of RP-Tag Small (see Sequence 3, below) with an N-terminal Rhodamine B label was incubated with increasing concentrations of either RP-Tag Large (see Sequence 2) or Bovine Serum Albumin (BSA) in 50 mM Tris pH 8.0, 150 mM NaCl, 10 mM 2-mercaptoethanol, and 0.005% Tween 20 for 5 min in black 96-well plates at room temperature.
(§2) Anisotropy was then measured, and a Kd calculated by fitting the data to the equation f=y0+(ymax−y0)*(Ptot+x+Kd−sqrt((Ptot+x+Kd)^2−4*Ptot*x))/(2*Ptot), where y0 is the baseline anisotropy, ymax is the maximum anisotropy, Ptot is the fixed concentration of labeled peptide used, x is the variable concentration of protein used, and Kd is the measured Kd.
(§3) The indicated concentrations of RPtag (large) and an anti-His tag antibody (4E3D10H2/E3 purchased from ThermoFisher Scientific) were incubated with 1 nM rhodamine labeled native RPtag (small) peptide and 6×His peptide (Rhodamine-GHHHHHH), respectively, and fluorescence anisotropy measured. BSA incubated with native rhodamine labeled RPtag(small) is included as a control for non-specific binding. Kd's were calculated according to the equation f=y0+(ymax−y0)*(Ptot+x+Kd−sqrt((Ptot+x+Kd)^2−4*Ptot*x))/(2*Ptot), where y0 is the baseline anisotropy, ymax is the maximum anisotropy, Ptot is the fixed concentration of labeled peptide used, x is the variable concentration of protein used, and Kd is the measured Kd. We measured a Kd of 0.2±0.1 nM for RPtag(large) binding RPtag(small), and a Kd of 6±1 nM for the antibody/6×His tag pair.
Regarding the studies shown in FIG. 14, increasing concentrations of unlabeled RPtag large with the indicated mutations (native, f137d, and f137e) were incubated for 1 h with 1 nM rhodamine labeled RPtag small peptide and the fluorescence anisotropy was measured. Resultant curves were fit with the equation f=y0+(ymax−y0)*(Ptot+x+Kd−sqrt((Ptot+x+Kd)^2−4*Ptot*x))/(2*Ptot), where y0 is the baseline anisotropy, ymax is the maximum anisotropy, Ptot is the fixed concentration of labeled peptide used, x is the variable concentration of protein used, and Kd is the measured Kd. Data are presented here as Ka=1/Kd. Log transformed Ka's were then compared by one-way ANOVA with Holm-Sidak post hoc correction. ***p<0.001, **p<0.01, *p<0.05. data are mean±SEM (n=3-4). Buffer was 50 mM Tris pH 8.0, 0.005% tween20. Proteins were expressed and purified by single step NiNTA chromatography as before. Peptides were synthesized solid-state and handled as previous.
For orientation: Polarisation of emitted light reports the rotation of a fluorescent probe.

A further series relates to RPtag (large) resin. Briefly: Affinity-based precipitation/pull-down with RPtag (large) resin. The series is classed as binding, Thermoanaerobacter tengcongensis. Particulars: negative control peptide. As to the method:
The disclosed proteins and peptides were used in precipitation/pull-down assays. Specifically, rhodamine was tagged with the RPtag(small) Nd8Cd4 peptide and RPtag(large) was immobilized on a resin, as described above.
Briefly, 100 μL 1000 nM rhodamine labeled RPtag(small) peptide was incubated with 2.5 uL wet settled RPtag (large) resin generated as (as described above) in phosphate buffered saline (PBS; Gibco)+1% BSA+0.005% Tween 20 at 4° C. for 60 min with continuous orbital shaking. Samples were then washed 3× with 500 μL of the same buffer with no peptide to remove unbound peptide. Bound RPtag(small) peptides were then eluted with 100 μL 100 mM glycine pH 1.5+0.005% Tween20, and the pH raised by adding 1 μL 1 M borate pH 10.0. The amount eluted was calculated from the blank subtracted fluorescence of the elution versus the load. After each elution, resin was washed once with 500 μL 6M GdnHCl and once with 500 μL phosphate buffered saline (Gibco)+1% BSA+0.005% Tween 20, before repeating the assay.
Sequential precipitation/pulldown trials were performed with the rhodamine labelled RPtag(small) Nd8Cd4 peptide, and the RPtag(large)-resin. After binding and pull-down, the rhodamine-peptide was eluted in 100 mM glycine pH 1.5, the column was washed with water and 6 M guanidine hydrochloride, and then re-equilibrated with buffer (50 mM Tris pH 8.0, 10 mM EDTA). […]

In another series the test system is F137D RPtag(large). The experiment in a line: Compensatory mutation binding study by fluorescence anisotropy. Also noted: species or system Thermoanaerobacter tengcongensis. Particulars: 1 nM rhodamine labeled peptide. The text has this:
The possibility of creating compensatory mutations in the two sequences was investigated by modifying position 14 of RPtag(small) and position 137 of RPtag(large). First, a positively charged lysine (K) was introduced at position L14 of RPtag(small) (FIG. 14). […] Next, position F137 of RPtag(large) was mutated to aspartic acid (D), which is a negatively charged residue under physiologic conditions. This substitution was introduced into RPtag(large) to balance the charge with the L14K substitution, and help restore interaction between the two residues. […] In other embodiments, different compensatory mutations may be introduced at F137 and L14, as well as other positions in the two RPtag proteins.
Regarding the studies shown in FIG. 14, increasing concentrations of unlabeled RPtag large with the indicated mutations (native, f137d, and f137e) were incubated for 1 h with 1 nM rhodamine labeled RPtag small peptide and the fluorescence anisotropy was measured. Resultant curves were fit with the equation f=y0+(ymax−y0)*(Ptot+x+Kd−sqrt((Ptot+x+Kd)^2−4*Ptot*x))/(2*Ptot), where y0 is the baseline anisotropy, ymax is the maximum anisotropy, Ptot is the fixed concentration of labeled peptide used, x is the variable concentration of protein used, and Kd is the measured Kd. Data are presented here as Ka=1/Kd. […]

Series [2] has as its target Bovine Serum Albumin (BSA) (Bos taurus, UniProt P02769). It counts as binding. Particulars: fluorescence anisotropy, rhodamine labeled peptide; up to 10 μM BSA. On the procedure:
as §1, §2, §3

A further series relates to immobilized RP-Tag Large. Briefly: Column elution trials of rhodamine labeled RP-Tag Small bound to immobilized RP-Tag Large. It counts as binding, Thermoanaerobacter tengcongensis. On the procedure: One embodiment of the disclosed RP-Tag system was tested by creating a column with one component bound to a solid, agarose-based matrix. In these experiments, a SulfoLink™ Immobilization kit (ThermoFisher scientific) was used to affix RP-Tag Large to a solid support, according to the manufacturer's instructions. For these experiments, an N-terminal linker was added to RP-Large that included a Cys residue. One of skill in the art is able to select various techniques and chemistries to aid in affixing either RP-Tag protein to a solid support matrix.
The amount of protein linked to the column was determined using a BCA assay with Bovine Serum Albumin (BSA) as a standard. […] The linked resin was poured into an included column and the column capped with a frit included in the kit (see photos in FIG. 2). The column was equilibrated with several volumes of 50 mM Tris pH 8.5, 150 mM NaCl, 5 mM EDTA.
25 mL of 1 μM Rhodamine-6B labeled RP-Tag Small, in 50 mM Tris pH 8.5, 150 mM NaCl, 5 mM EDTA, was flowed over the column of immobilized RP-Tag Large protein. RP-Tag Small bound the column and formed a visibly bright red band (rhodamine B) at the top of the resin (see FIG. 2).
Briefly, after binding, the RP-Tag Small red band was not observed to appreciably diffuse and/or elute after washing the column (and band) with various solutions. For these tests, 10 mL (5 column volumes) of various buffers were added to the column. The tested buffers ranged from about pH 1.5-13.7 and about 1 M sodium hydroxide.
Table 1. Summary of elution trial data. The test system used was a column equilibrated with 50 mM Tris pH 8.5, 150 mM NaCl, 5 mM EDTA, and applied 25 mL 1 μM Rhodamine-6B labeled RP-small peptide in the same buffer. In cases where D-ribose was used, the indicated concentration was also included in the equilibration and loading buffer.

The subject of series [3] is RPtag (large). Briefly: Association/dissociation kinetics of RPtag (small) peptides with RPtag (large) by fluorescence anisotropy. It counts as binding, Thermoanaerobacter tengcongensis. On the procedure:
Panel a depicts representative association rate kinetics traces varying native RPtag small. Rhodamine labeled RPtag small at the indicated concentration was incubated with unlabeled RPtag large and the association measured by fluorescence anisotropy. L-S complex concentration was calculated by the equation (r−rmin)/(rmax−rmin)*[S] where r is the measured anisotropy, rmin is the anisotropy in the absence of any RPtag large, rmax is the anisotropy measured in the presence of at saturating RPtag large, and [S] is the total concentration of RPtag small used in the experiment. […] Dashed cyan lines are simulations of the mechanism shown in f using the rate constants detailed herein. The concentrations in the simulations were multiplied by a correction factor of 0.925, which is well within the 90% purity specification of the purchased peptide.
LS complex was performed by incubating 1000 nM RPtag large with the indicated concentrations of rhodamine labeled RPtag small. At the start of the experiment, 0.1 mM unlabeled native RPtag small was added and fluorescence anisotropy monitored. Data processing was done as in panel a, except the red fits were to the single exponential decay equation y=y0+A*exp(−b*t). As expected, the initial dissociation rates were linear with respect to the LS complex.
Fitting to a line yields a rate constant (koff)=0.0091 min^−1 (FIG. 9 panel e). In good agreement, when the kinetics are fit with a first order rate law, a rate constant of 0.012±0.002 min^−1 (n=15) was observed. […] Panel e is a graph of the initial rates of the traces represented in d. Slope of the fit line is 0.0091 min^−1. Data are mean±SE (n=3).
The library of mutant RPtag(small) peptides, described above, was next analyzed to measure off rates (koff). The on rate was also calculated from measured koff and Kd (S*-LS transition), except instead of using unlabeled native peptide as the competitor, we used unlabeled Nd2,P5A,E18A (the tightest binding RPtag(small) peptide identified). […] However, there were notable exceptions. […] This indicates, without wishing to be limited, that P5 may constrain the structure of the peptide. The increased flexibility imparted to the peptide by the P5A mutation may decrease the energy barrier required for binding/unbinding.
Target sequence in this assay (as listed by the source): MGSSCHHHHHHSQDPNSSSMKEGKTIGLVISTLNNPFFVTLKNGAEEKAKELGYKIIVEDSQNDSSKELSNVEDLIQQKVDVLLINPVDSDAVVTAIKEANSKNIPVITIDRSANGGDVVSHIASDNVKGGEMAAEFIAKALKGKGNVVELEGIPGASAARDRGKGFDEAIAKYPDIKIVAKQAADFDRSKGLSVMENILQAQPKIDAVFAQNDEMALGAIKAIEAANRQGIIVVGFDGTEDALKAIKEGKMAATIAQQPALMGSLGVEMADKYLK

The mark [4] stands for this setting: N-terminal rhodamine tagged peptide, unlabeled RPtag (large), 50 mM Tris pH 8.0, 0.005% Tween 20, mean ± SE.

Sequence of Bovine Serum Albumin (BSA) (P02769 25-607): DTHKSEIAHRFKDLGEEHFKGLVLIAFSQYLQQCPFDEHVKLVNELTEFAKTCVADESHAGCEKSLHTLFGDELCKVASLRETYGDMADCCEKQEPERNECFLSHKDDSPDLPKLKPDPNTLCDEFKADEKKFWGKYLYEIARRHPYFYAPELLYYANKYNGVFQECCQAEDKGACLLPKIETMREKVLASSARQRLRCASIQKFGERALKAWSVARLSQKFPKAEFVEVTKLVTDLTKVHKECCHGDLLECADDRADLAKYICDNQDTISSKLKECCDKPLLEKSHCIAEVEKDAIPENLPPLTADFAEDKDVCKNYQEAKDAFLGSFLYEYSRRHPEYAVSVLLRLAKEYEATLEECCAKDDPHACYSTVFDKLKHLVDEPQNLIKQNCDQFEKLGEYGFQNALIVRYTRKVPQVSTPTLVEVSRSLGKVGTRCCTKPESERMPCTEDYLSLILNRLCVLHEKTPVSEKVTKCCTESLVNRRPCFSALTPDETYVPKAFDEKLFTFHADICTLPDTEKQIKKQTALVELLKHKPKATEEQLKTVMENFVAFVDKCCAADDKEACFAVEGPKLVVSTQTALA
Sequence of F137D RPtag(large) (as listed by the source, stated change not applied): as the sequence (as listed by the source) above, with F137D counted along it
Sequence of RPtag (large) resin (as listed by the source): as the sequence (as listed by the source) above

As for GEKIPNFIP [Cd12], the Kd – broadly, the free concentration of one partner at which half of the binding sites on the other are occupied at equilibrium, for simple one-to-one binding – on RPtag (large) [1] (setting [4]) was more than 100000 nM. In addition, the binding in pulldown entry in the series with RPtag (large) resin is given as “no binding”.
For the sequence GEKIPNFIPAELKKITKENVQ [l14k], the “binding to native RPtag(large)” value in the series on RPtag (large) [1] (1 nM rhodamine labeled peptide, 50 mM Tris pH 8.0, 0.005% tween20) was “significantly impaired binding”. In addition, the “binding affinity for F137D RPtag(large)” value with F137D RPtag(large) is “substantially restored the binding affinity”.
Turning to GEKIPNFIPAELKLITKENVQ [RP-Tag Small], the “binding to BSA” value in series [2] is reported as “no binding”. Further, on RPtag (large) [1] (50 nM N-terminal Rhodamine B RP-Tag Small, 50 mM Tris pH 8.0, 150 mM NaCl, 10 mM 2-mercaptoethanol, 0.005% Tween 20), the equilibrium dissociation constant (Kd) was found to be 8 nM. Further, the “Result of elution trial (bound rhodamine band)” value (“Result … (bound rhodamine band)” for short) is listed as “Partial band elution, slight” in the series with immobilized RP-Tag Large (0.1M Tris pH 7.5 + 100 μM unlabeled RP tag peptide); “Complete band elution” in the series on immobilized RP-Tag Large (0.1M Tris pH 7.5 + 6M guanidine hydrochloride); “partial band elution,” with immobilized RP-Tag Large (0.1M Tris pH 7.5 + 6M guanidine hydrochloride + 10 mM D-ribose); “no band elution, significant” with immobilized RP-Tag Large (0.1M Tris pH 7.5 + 6M guanidine hydrochloride + 100 mM D-ribose); “No band elution, minor” in the series on immobilized RP-Tag Large (0.1M Tris pH 7.5 + 6M guanidine hydrochloride + 1M D-ribose); “No band diffusion/elution” in the series on immobilized RP-Tag Large (5 column volumes 0.05M sodium acetate pH 4.6). Moreover, the “Result … (bound rhodamine band)” value with immobilized RP-Tag Large (5 column volumes 0.1M Tris pH 7.5) is reported as “No band diffusion/elution”; in the series with immobilized RP-Tag Large (5 column volumes 0.1M Tris pH 8.0) it was “No band diffusion/elution”; in the series with immobilized RP-Tag Large (5 column volumes 0.1M Tris pH 8.5), “No band diffusion/elution”; with immobilized RP-Tag Large (5 column volumes 0.1M glycine pH 1.5), “Complete band elution”; in the series on immobilized RP-Tag Large (5 column volumes 0.1M glycine pH 2.5), “No band diffusion/elution”; in the series with immobilized RP-Tag Large (5 column volumes 0.1M glycine pH 3.5), “No band diffusion/elution”. Besides, the “Result … (bound rhodamine band)” value in the series with immobilized RP-Tag Large (5 column volumes 0.1M sodium phosphate pH 12.0), in the series on immobilized RP-Tag Large (5 column volumes 0.1M sodium phosphate pH 13.0), in the series on immobilized RP-Tag Large (5 column volumes 0.1M sodium phosphate pH 13.7) and with immobilized RP-Tag Large (5 column volumes 1M sodium hydroxide) was “No band diffusion/elution” each time. For the same sequence, the “stability of bound band on column” value with immobilized RP-Tag Large (room temperature) is reported as more than 1 week.
Regarding “GEKIPNFIPAELKLITKENVQ [v20a, RPtag(small) with V20 changed to alanine]”, the Kd on RPtag (large) [1] (setting [4]) was determined as 0.18 ± 0.03 nM. The koff (in general, a measure of how fast the partners let go of each other) with RPtag (large) [3] (LS dissociation, unlabeled competitor peptide) worked out at 0.012 ± 0.001 min⁻¹. In the series with RPtag (large) [3] (S to S* forward rate constant), the “kf” value is 0.073 ± 0.003 min⁻¹. Besides, the “kon (M^−1 min^−1 ) (×10^7)” value in the series on RPtag (large) [3] (S*-LS transition, calculated from measured koff and Kd) was 6.8 ± 0.5 ×10^7 M^−1 min^−1.
